Laboratory results reported in patent US20160367623A1, “AGONISTS OF GUANYLATE CYCLASE USEFUL FOR THE TREATMENT OF GASTROINTESTINAL DISORDERS, INFLAMMATION, CANCER AND OTHER DISORDERS” (priority 2015, published 2016).
Bridge positions count the residues as written; N and C are the ends. Ends that are not written are not given here.

Tested on: patients with chronic idiopathic constipation (CIC)
Assay: Second phase 3 CIC trial: CSBM weekly responders by week
Format: in vivo, human
Settings: MRA
Description: Both trials include a two-week pre-treatment baseline period, a 12-week treatment period, and a two-week post-treatment period. The phase 3 CIC program was designed to support regulatory submission in the U. S.
The primary endpoint for both trials is the proportion of durable overall responders (%), which is the current regulatory endpoint required for U.S. approval in CIC. The FDA has defined a durable overall responder as a patient who fulfills both ≧3 complete spontaneous bowel movements (CSBMs) per week plus an increase of ≧1 CSBM from baseline in the same week, for 9 out of the 12 treatment weeks. In addition, the same patient must be an overall responder for at least 3 of the last 4 treatment weeks in order to be considered a durable overall responder.
Patients were selected using Rome 3 criteria modified for CIC and had (1) fewer than 3 defecations per week, (2) loose stools occurring rarely without laxatives, (3) inadequate criteria for irritable bowel syndrome with constipation (IBS-C), and (4) at least two of the following applied to at least 25% of defecations: (a) straining during evacuation, (b) lumpy or hard stools, (c) sensation of anorectal obstruction or blockage. Rome 3 requires patients to fulfill the criteria for the last 3 months with symptom onset at least 6 months prior to diagnosis.

[1] = Week 2, 6 mg, ITT Population-Excluding Duplicate Patients
[2] = Week 2, Active Combined, ITT Population-Excluding Duplicate Patients
[3] = Week 2, Active Combined, ITT Population
[4] = Week 3, 3 mg, ITT Population-Excluding Duplicate Patients
[5] = Week 3, 6 mg, ITT Population-Excluding Duplicate Patients
[6] = Week 3, Active Combined, ITT Population-Excluding Duplicate Patients
[7] = Week 3, Active Combined, ITT Population
[8] = Week 4, 3 mg, ITT Population-Excluding Duplicate Patients
[9] = Week 4, 6 mg, ITT Population-Excluding Duplicate Patients
[10] = Week 4, Active Combined, ITT Population-Excluding Duplicate Patients
[11] = Week 4, Active Combined, ITT Population
[12] = Week 5, 3 mg, ITT Population-Excluding Duplicate Patients
[13] = Week 5, 6 mg, ITT Population-Excluding Duplicate Patients
[14] = Week 5, Active Combined, ITT Population-Excluding Duplicate Patients

Substance: Asn^1-Asp^2-Glu^3-Cys^4-Glu^5-Leu^6-Cys^7-Val^8-Asn^9-Val^10-Ala^11-Cys^12-Thr^13-Gly^14-Cys^15-Leu^16 (NDECELCVNVACTGCL; disulfide 4-12, 7-15) [Plecanatide, uroguanylin analogue, guanylate cyclase-C agonist; (C4:C12, C7:C15) bicycle peptide]
- Difference in Proportions (adjusted) (Week 2, 6 mg minus placebo, All Randomized (includes Duplicate Patients)): 0.114
- Odds Ratio (adjusted) (Week 2, 6 mg vs placebo, All Randomized (includes Duplicate Patients)): 0.513
- CSBM Weekly Responders, n (%) (Week 2, 6 mg, All Randomized (includes Duplicate Patients)): 132 (28.0) n (%)
- CSBM Weekly Responders, n (%) (Week 2, 6 mg, ITT Population): 123 (27.4) n (%)
- Non-Responders, n (%) (Week 2, 6 mg, ITT Population): 326 (72.6) n (%)
- CSBM Weekly Responders, n (%) [1]: 123 (27.8) n (%)
- Non-Responders, n (%) [1]: 320 (72.2) n (%)
- CSBM Weekly Responders, n (%) (Week 2, Active Combined, All Randomized (includes Duplicate Patients)): 252 (26.8) n (%)
- Difference in Proportions (adjusted) (Week 2, 3 mg minus placebo, ITT Population-Excluding Duplicate Patients): 0.086
- Difference in Proportions (adjusted) (Week 2, 3 mg minus placebo, ITT Population): 0.087
- Odds Ratio (adjusted) (Week 2, 3 mg vs placebo, ITT Population-Excluding Duplicate Patients): 0.592
- Odds Ratio (adjusted) (Week 2, 3 mg vs placebo, ITT Population): 0.59
- Difference in Proportions (adjusted) (Week 2, 6 mg minus placebo, ITT Population-Excluding Duplicate Patients): 0.111
- Difference in Proportions (adjusted) (Week 2, 6 mg minus placebo, ITT Population): 0.108
- Odds Ratio (adjusted) (Week 2, 6 mg vs placebo, ITT Population-Excluding Duplicate Patients): 0.523
- Odds Ratio (adjusted) (Week 2, 6 mg vs placebo, ITT Population): 0.53
- CSBM Weekly Responders, n (%) [2]: 233 (26.6) n (%)
- Non-Responders, n (%) [2]: 644 (73.4) n (%)
- CSBM Weekly Responders, n (%) [3]: 235 (26.3) n (%)
- Non-Responders, n (%) [3]: 657 (73.7) n (%)
- Difference in Proportions (adjusted) (Week 3, 3 mg minus placebo, All Randomized (includes Duplicate Patients)): 0.070
- Odds Ratio (adjusted) (Week 3, 3 mg vs placebo, All Randomized (includes Duplicate Patients)): 0.691
- CSBM Weekly Responders, n (%) (Week 3, 3 mg, All Randomized (includes Duplicate Patients)): 135 (28.7) n (%)
- CSBM Weekly Responders, n (%) (Week 3, 3 mg, ITT Population): 125 (28.2) n (%)
- Non-Responders, n (%) (Week 3, 3 mg, ITT Population): 318 (71.8) n (%)
- CSBM Weekly Responders, n (%) [4]: 122 (28.1) n (%)
- Non-Responders, n (%) [4]: 312 (71.9) n (%)
- Difference in Proportions (adjusted) (Week 3, 6 mg minus placebo, All Randomized (includes Duplicate Patients)): 0.056
- Odds Ratio (adjusted) (Week 3, 6 mg vs placebo, All Randomized (includes Duplicate Patients)): 0.738
- CSBM Weekly Responders, n (%) (Week 3, 6 mg, ITT Population): 120 (26.7) n (%)
- Non-Responders, n (%) (Week 3, 6 mg, ITT Population): 329 (73.3) n (%)
- CSBM Weekly Responders, n (%) [5]: 119 (26.9) n (%)
- Non-Responders, n (%) [5]: 324 (73.1) n (%)
- Difference in Proportions (adjusted) (Week 3, 3 mg minus placebo, ITT Population-Excluding Duplicate Patients): 0.054
- Difference in Proportions (adjusted) (Week 3, 3 mg minus placebo, ITT Population): 0.057
- Odds Ratio (adjusted) (Week 3, 3 mg vs placebo, ITT Population-Excluding Duplicate Patients): 0.750
- Odds Ratio (adjusted) (Week 3, 3 mg vs placebo, ITT Population): 0.739
- Difference in Proportions (adjusted) (Week 3, 6 mg minus placebo, ITT Population-Excluding Duplicate Patients): 0.042
- Difference in Proportions (adjusted) (Week 3, 6 mg minus placebo, ITT Population): 0.043
- Odds Ratio (adjusted) (Week 3, 6 mg vs placebo, ITT Population-Excluding Duplicate Patients): 0.798
- Odds Ratio (adjusted) (Week 3, 6 mg vs placebo, ITT Population): 0.796
- CSBM Weekly Responders, n (%) [6]: 241 (27.5) n (%)
- Non-Responders, n (%) [6]: 636 (72.5) n (%)
- CSBM Weekly Responders, n (%) [7]: 245 (27.5) n (%)
- Non-Responders, n (%) [7]: 647 (72.5) n (%)
- Difference in Proportions (adjusted) (Week 4, 3 mg minus placebo, All Randomized (includes Duplicate Patients)): 0.093
- Odds Ratio (adjusted) (Week 4, 3 mg vs placebo, All Randomized (includes Duplicate Patients)): 0.611
- CSBM Weekly Responders, n (%) (Week 4, 3 mg, ITT Population): 132 (29.8) n (%)
- Non-Responders, n (%) (Week 4, 3 mg, ITT Population): 311 (70.2) n (%)
- CSBM Weekly Responders, n (%) [8]: 130 (30.0) n (%)
- Non-Responders, n (%) [8]: 304 (70.0) n (%)
- Difference in Proportions (adjusted) (Week 4, 6 mg minus placebo, All Randomized (includes Duplicate Patients)): 0.082
- Odds Ratio (adjusted) (Week 4, 6 mg vs placebo, All Randomized (includes Duplicate Patients)): 0.644
- CSBM Weekly Responders, n (%) (Week 4, 6 mg, ITT Population): 127 (28.3) n (%)
- Non-Responders, n (%) (Week 4, 6 mg, ITT Population): 322 (71.7) n (%)
- CSBM Weekly Responders, n (%) [9]: 126 (28.4) n (%)
- Non-Responders, n (%) [9]: 317 (71.6) n (%)
- Difference in Proportions (adjusted) (Week 4, 3 mg minus placebo, ITT Population-Excluding Duplicate Patients): 0.082
- Difference in Proportions (adjusted) (Week 4, 3 mg minus placebo, ITT Population): 0.082
- Odds Ratio (adjusted) (Week 4, 3 mg vs placebo, ITT Population-Excluding Duplicate Patients): 0.650
- Odds Ratio (adjusted) (Week 4, 3 mg vs placebo, ITT Population): 0.648
- Difference in Proportions (adjusted) (Week 4, 6 mg minus placebo, ITT Population-Excluding Duplicate Patients): 0.067
- Difference in Proportions (adjusted) (Week 4, 6 mg minus placebo, ITT Population): 0.067
- Odds Ratio (adjusted) (Week 4, 6 mg vs placebo, ITT Population-Excluding Duplicate Patients): 0.698
- Odds Ratio (adjusted) (Week 4, 6 mg vs placebo, ITT Population): 0.697
- CSBM Weekly Responders, n (%) [10]: 256 (29.2) n (%)
- Non-Responders, n (%) [10]: 621 (70.8) n (%)
- CSBM Weekly Responders, n (%) [11]: 259 (29.0) n (%)
- Non-Responders, n (%) [11]: 633 (71.0) n (%)
- Difference in Proportions (adjusted) (Week 5, 3 mg minus placebo, All Randomized (includes Duplicate Patients)): 0.119
- Odds Ratio (adjusted) (Week 5, 3 mg vs placebo, All Randomized (includes Duplicate Patients)): 0.560
- CSBM Weekly Responders, n (%) (Week 5, 3 mg, ITT Population): 154 (34.8) n (%)
- Non-Responders, n (%) (Week 5, 3 mg, ITT Population): 289 (65.2) n (%)
- CSBM Weekly Responders, n (%) [12]: 153 (35.3) n (%)
- Non-Responders, n (%) [12]: 281 (64.7) n (%)
- Difference in Proportions (adjusted) (Week 5, 6 mg minus placebo, All Randomized (includes Duplicate Patients)): 0.061
- Odds Ratio (adjusted) (Week 5, 6 mg vs placebo, All Randomized (includes Duplicate Patients)): 0.731
- CSBM Weekly Responders, n (%) (Week 5, 6 mg, ITT Population): 133 (29.6) n (%)
- Non-Responders, n (%) (Week 5, 6 mg, ITT Population): 316 (70.4) n (%)
- CSBM Weekly Responders, n (%) [13]: 132 (29.8) n (%)
- Non-Responders, n (%) [13]: 311 (70.2) n (%)
- Difference in Proportions (adjusted) (Week 5, 3 mg minus placebo, ITT Population-Excluding Duplicate Patients): 0.107
- Difference in Proportions (adjusted) (Week 5, 3 mg minus placebo, ITT Population): 0.105
- Odds Ratio (adjusted) (Week 5, 3 mg vs placebo, ITT Population-Excluding Duplicate Patients): 0.596
- Odds Ratio (adjusted) (Week 5, 3 mg vs placebo, ITT Population): 0.602
- Difference in Proportions (adjusted) (Week 5, 6 mg minus placebo, ITT Population-Excluding Duplicate Patients): 0.053
- Difference in Proportions (adjusted) (Week 5, 6 mg minus placebo, ITT Population): 0.054
- Odds Ratio (adjusted) (Week 5, 6 mg vs placebo, ITT Population-Excluding Duplicate Patients): 0.764
- Odds Ratio (adjusted) (Week 5, 6 mg vs placebo, ITT Population): 0.762
- CSBM Weekly Responders, n (%) [14]: 285 (32.5) n (%)
- Non-Responders, n (%) [14]: 592 (67.5) n (%)
- CSBM Weekly Responders, n (%) (Week 5, Active Combined, ITT Population): 287 (32.2) n (%)
